Results taken from patent US20230286983A1 (4E Therapeutics, Inc., priority 2020, published 2023).

Columns and labels:
[1] = system: eIF4E phosphorylation at Serine 209 in the human embryonic kidney (HEK) 293 cell line; assay: eIF4E phosphorylation in HEK 293 cells (fluorescent plate reader); type: cell-based; details: eIF4E phosphorylation at Serine 209, 2 hours exposure
Outline: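 HEK-293 cells were treated with compound for 2 h, then methanol-fixed and Triton-permeabilized. Ser209 phospho-eIF4E was stained with primary antibody (1:2000, overnight) and an Alexa Fluor 488 secondary. Fluorescence was normalized to DAPI, and IC50 was fitted from concentration-response data.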

MNK1 = MNK1 (Homo sapiens, UniProt Q9BUB5); assay: MNK1 substrate phosphorylation assay; type: biochemical; details: recombinant human kinase
Chain of MNK1 (Q9BUB5 whole entry): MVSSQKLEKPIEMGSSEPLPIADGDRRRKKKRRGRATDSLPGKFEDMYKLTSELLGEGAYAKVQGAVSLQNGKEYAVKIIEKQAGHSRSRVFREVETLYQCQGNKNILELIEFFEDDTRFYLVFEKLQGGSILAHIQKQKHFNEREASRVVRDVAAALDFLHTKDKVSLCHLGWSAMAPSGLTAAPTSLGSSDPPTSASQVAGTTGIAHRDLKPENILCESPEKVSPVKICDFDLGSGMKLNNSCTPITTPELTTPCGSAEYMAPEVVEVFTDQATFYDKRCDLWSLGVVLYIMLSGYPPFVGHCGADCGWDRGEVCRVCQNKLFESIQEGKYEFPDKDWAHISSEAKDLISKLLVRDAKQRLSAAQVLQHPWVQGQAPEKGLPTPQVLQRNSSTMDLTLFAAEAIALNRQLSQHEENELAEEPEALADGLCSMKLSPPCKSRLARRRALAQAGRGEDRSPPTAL

MDCK-MDR1 = MDCK-MDR1 permeability (blood brain barrier permeability); type: in vitro ADME, Canine; details: 5 μM
IL-6 evoked grimace = IL-6 evoked grimace test; type: in vivo, ICR mice
Description: Institute for Cancer Research (ICR) mice were used in these experiments. Mice were bred in house at University of Texas at Dallas and used at between 12 and 24 weeks of age. Mice were habituated to plexiglass boxes of approximately 4×6 inches in size with openable tops. Habituation took place over 2 days with animals exposed to the boxes for at least 30 min. A blinded observer scored baseline grimacing using the method previously described by Mogil and colleagues (Langford, et al., Coding of facial expressions of pain in the laboratory mouse. Nat Methods (2010) 7:447-449.). On test day, mice were given test compounds 1 hr prior to injection of interleukin 6 (human recombinant IL-6, R&D Systems) which was given at a dose of 0.1 ng in saline via an intraplantar injection as described previously (Moy et al. The MNK-eIF4E Signaling Axis Contributes to Injury-Induced Nociceptive Plasticity and the Development of Chronic Pain. J Neurosci (2017) 37:7481-7499.). Test compounds were given orally (PO) via a flexible oral gavage canula built for mice. 4ET-01-021 (10.0, 3.0, and 1.0 mg/kg) and 4ET-03-052B (10.0 mg/kg) are efficacious in the IL-6 evoked grimace test in mice. FIG. 5 depicts a comparison of effect size in the IL-6 evoked grimace test. Effect sizes were calculated per mouse by subtracting the baseline grimace score from the sum of the grimace scores for 1 and 3 hr time points. […] FIG. 6 is a graph showing the effect size in the IL-6 evoked grimace test vs. dose of 4ET-01-021.

[2] = Liver microsome stability, mouse; type: in vitro ADME; details: mouse liver microsomes, Table 11b
MNK2 = MNK2 (Homo sapiens, UniProt Q9HBH9); assay: MNK2 substrate phosphorylation assay; type: biochemical; details: recombinant human kinase
Chain of MNK2 (Q9HBH9 whole entry): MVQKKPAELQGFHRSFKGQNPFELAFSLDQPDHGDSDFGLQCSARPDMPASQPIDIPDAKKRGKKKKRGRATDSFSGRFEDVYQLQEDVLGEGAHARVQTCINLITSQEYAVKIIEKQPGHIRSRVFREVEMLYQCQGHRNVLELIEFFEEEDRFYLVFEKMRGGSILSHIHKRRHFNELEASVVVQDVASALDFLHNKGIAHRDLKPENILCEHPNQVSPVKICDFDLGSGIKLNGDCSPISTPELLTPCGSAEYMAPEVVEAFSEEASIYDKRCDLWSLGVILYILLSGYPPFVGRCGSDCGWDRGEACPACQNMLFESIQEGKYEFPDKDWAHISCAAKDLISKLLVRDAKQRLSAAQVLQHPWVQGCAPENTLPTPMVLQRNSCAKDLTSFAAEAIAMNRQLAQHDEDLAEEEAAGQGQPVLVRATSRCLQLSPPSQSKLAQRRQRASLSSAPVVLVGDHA

[3] = target: Cdc2-like kinase 4 (CLK4) (Homo sapiens, UniProt Q9HAZ1); assay: Off-target kinase screen CLK4; type: biochemical; details: 1 μM test compound
Chain of Cdc2-like kinase 4 (CLK4) (Q9HAZ1 whole entry): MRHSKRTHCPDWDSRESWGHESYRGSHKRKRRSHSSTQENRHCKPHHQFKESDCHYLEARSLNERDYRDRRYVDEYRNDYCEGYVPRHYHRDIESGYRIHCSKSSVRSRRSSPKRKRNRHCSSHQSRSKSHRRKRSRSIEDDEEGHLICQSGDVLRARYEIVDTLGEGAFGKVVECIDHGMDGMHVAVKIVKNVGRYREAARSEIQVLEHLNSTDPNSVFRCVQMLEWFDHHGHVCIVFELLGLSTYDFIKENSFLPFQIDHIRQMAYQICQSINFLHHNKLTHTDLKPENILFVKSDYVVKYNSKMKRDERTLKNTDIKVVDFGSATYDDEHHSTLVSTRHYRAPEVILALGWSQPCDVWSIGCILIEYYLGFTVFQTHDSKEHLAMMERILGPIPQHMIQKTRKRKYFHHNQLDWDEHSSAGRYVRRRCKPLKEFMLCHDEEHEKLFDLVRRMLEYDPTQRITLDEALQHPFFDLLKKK
From the text: (§1) These kinases were chosen because they are the only known off-target hit kinases for eFT508. These assays were done using recombinant human kinases (CLK4, DRAK1 and PKG2) in a substrate phosphorylation assay. % activity remaining after MNK inhibitor treatment is indicated in Table 12.

[4] = Liver microsome stability, human; type: in vitro ADME; details: liver microsomes
P-gp (human MDR1, ABCB1) = assay: MDCK-MDR1 permeability (blood brain barrier permeability); type: in vitro ADME, Canine; details: dog, 5 μM, average of two experiments
[5] = target: T1, death-associated protein kinase-related apoptosis-inducing protein kinase 1 (DRAK1) (Homo sapiens, UniProt Q9UEE5); assay: Off-target kinase screen DRAK1; type: biochemical; details: 1 μM test compound
T1 sequence (Q9UEE5 1-414): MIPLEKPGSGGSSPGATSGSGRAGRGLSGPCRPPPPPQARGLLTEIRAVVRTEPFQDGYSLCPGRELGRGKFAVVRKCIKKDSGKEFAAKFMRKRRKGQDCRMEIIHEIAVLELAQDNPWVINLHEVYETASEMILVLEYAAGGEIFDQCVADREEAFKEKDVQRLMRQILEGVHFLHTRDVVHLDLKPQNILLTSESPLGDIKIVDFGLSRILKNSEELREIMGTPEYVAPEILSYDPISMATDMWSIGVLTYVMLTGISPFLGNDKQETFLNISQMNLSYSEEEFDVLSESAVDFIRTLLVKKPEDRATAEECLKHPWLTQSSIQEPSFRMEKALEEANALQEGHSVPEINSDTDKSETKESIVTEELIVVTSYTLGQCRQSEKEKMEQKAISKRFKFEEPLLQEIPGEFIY
From the text: as §1

[6] = target: T2, protein kinase G 2 (PKG2) (Homo sapiens, UniProt Q13237); assay: Off-target kinase screen PKG2; type: biochemical; details: 1 μM test compound
T2 sequence (Q13237 1-762): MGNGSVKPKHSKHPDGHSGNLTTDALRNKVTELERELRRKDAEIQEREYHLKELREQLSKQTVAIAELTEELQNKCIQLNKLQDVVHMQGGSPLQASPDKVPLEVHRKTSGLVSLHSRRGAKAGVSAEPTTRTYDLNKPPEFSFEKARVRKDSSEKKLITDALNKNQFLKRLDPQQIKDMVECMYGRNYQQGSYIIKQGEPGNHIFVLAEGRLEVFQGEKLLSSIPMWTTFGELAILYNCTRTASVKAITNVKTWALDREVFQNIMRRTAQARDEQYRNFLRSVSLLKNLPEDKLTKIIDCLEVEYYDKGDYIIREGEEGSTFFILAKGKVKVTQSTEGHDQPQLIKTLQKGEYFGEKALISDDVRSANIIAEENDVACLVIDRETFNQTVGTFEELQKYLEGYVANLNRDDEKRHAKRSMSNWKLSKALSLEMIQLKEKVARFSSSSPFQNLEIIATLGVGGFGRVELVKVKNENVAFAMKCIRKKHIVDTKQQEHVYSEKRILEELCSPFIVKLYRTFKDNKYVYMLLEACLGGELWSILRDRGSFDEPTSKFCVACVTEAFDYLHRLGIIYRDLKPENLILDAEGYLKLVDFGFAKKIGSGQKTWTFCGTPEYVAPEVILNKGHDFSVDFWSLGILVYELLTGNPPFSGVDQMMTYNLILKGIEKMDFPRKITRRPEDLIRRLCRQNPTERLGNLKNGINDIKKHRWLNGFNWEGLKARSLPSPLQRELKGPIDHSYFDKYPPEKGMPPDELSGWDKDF
From the text: as §1

[7] = Liver microsome stability, rat; type: in vitro ADME; details: Rat liver microsomes (#)
[8] = system: eIF4E phosphorylation at serine 209 in various tumor cell lines; details: cited from earlier work
[9] = system: diffuse large B cell lymphoma (DLBCL) cell lines; details: multiple DLBCL cell lines; cited from earlier work

With `Cc1cc(Nc2cc(NC(=O)C3CC3)ncn2)c(=O)n2c1C(=O)NC21Cc2ccccc2[C@@H]1F` (single isomer, unassigned) [Compound 4ET-03-052B, N-(6-((1′-Fluoro-8-methyl-1,5-dioxo-1,1′,3′,5-tetrahydro-2H-spiro[imidazo[1,5-a]pyridine-3,2′-inden]-6-yl)amino)pyrimidin-4-yl)cyclopropanecarboxamide] the IC50 [1] was 11.7 nM, the IC50 (MNK1) was 19.9 nM and the “Efflux ratio (ratio B-A/A-B)” value (MDCK-MDR1) was 2.8. The “Papp A-B” value (MDCK-MDR1; Apical to basolateral transport, average of two experiments) was 22.9 ×10⁻⁶ cm/s, the “Papp B-A” value (MDCK-MDR1; Basolateral to apical transport, average of two experiments) was 63.3 ×10⁻⁶ cm/s and the “efficacy in the IL-6 evoked grimace test” value (IL-6 evoked grimace; PO 1 hr prior to IL-6, 4ET-01-021 10.0, 3.0 and 1.0 mg/kg, 4ET-03-052B 10.0 mg/kg) was “efficacious”. For the same molecule, the “effect size in the IL-6 evoked grimace test” value (IL-6 evoked grimace; sum of grimace scores at 1 and 3 hr minus baseline) was “statistically-significant effect sizes”, the T1/2 [2] was 2.88 h and the IC50 (MNK2) was 1.63 nM.
Work on `Cc1cc(Nc2cc(N)ncn2)c(=O)n2c1C(=O)NC21CCCCC1` [eFT508, reference compound] yielded a remaining activity at 1 µM [3] of 68%, a microsomal CLint [4] of 1.88 µL/min/mg and a half-life ([4]; read-out: Human liver microsomes t1/2) of 12.3 h. It also gave a Papp A→B at 5 μM (P-gp (human MDR1, ABCB1); MDCK-MDR1, Apical to basolateral transport) of 26.8 ×10⁻⁶ cm/s, a Papp B→A at 5 μM (P-gp (human MDR1, ABCB1); MDCK-MDR1, Basolateral to apical transport) of 41.7 ×10⁻⁶ cm/s and a remaining activity at 1 µM [5] of 24%. It also gave a remaining activity at 1 µM [6] of 100%, a microsomal CLint ([7]; read-out: CLint rodent) of 2.86 µL/min/mg and a half-life ([7]; read-out: Rodent liver microsomes t1/2) of 8.07 h. For the same molecule, the IC50 [8] was 2 to 16 nM, the half-life ([2]; mouse, liver microsomes, read-out: T1/2) was 8.07 h and the anti-proliferative activity [9] was “anti-proliferative activity”.
